Strand notation (5' to 3'): a small letter for the sugar, then the base; units joined by * are phosphorothioate-linked, units joined directly phosphodiester-linked; [ ] holds rarer units or linkages, { } end groups; capitals alone tell only the bases. k = constrained ethyl (cEt); [5mC] = 5-methylcytosine; d = 2'-deoxy (DNA)
How the values were obtained:
[1] = test system: human SMAD7 mRNA; experiment: Dose-dependent inhibition of human SMAD7 mRNA expression in Hep3B cells (Example 3, Study 1 and 2); assay type: cell-based; conditions: electroporation; for % inhibition of SMAD7 mRNA expression: approximately 16 hours; for IC50: Study 2 (740-20000 nM)
Method: The antisense oligonucleotides were tested in a series of experiments that had similar culture conditions as described below.
(§1) Cells were plated at a density of 20,000 cells per well and transfected using electroporation with 0.31 μM, 1.25 μM, 5.00 μM, or 20.00 μM concentrations of antisense oligonucleotide, as specified in the Tables below. ION 483663 was included in the assays for comparison. After a treatment period of approximately 16 hours, RNA was isolated from the cells and SMAD7 mRNA levels were measured by quantitative real-time PCR. Primer probe set RTS5062 was used to measure human SMAD7 mRNA levels. SMAD7 mRNA levels were adjusted according to total RNA content, as measured by RIBOGREEN®. Results are presented as percent inhibition of SMAD7 mRNA expression, relative to untreated control cells.
The half maximal inhibitory concentration (IC50) of each oligonucleotide is also presented.
as §1, with “0.74” for “0.31”, “2.22” for “1.25”, “6.67” for “5.00”, “below.” for “below. ION 483663 was included in the assays for comparison.”

[2] = test system: human SMAD7 mRNA; experiment: Antisense inhibition of human SMAD7 mRNA expression in Hep3B cells by 3-10-3 cEt gapmers, 10,000 nM, electroporation (Example 2); assay type: cell-based; conditions: approximately 24 hours
Outline: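 qRT-PCR (RTS5062) of SMAD7 mRNA, normalised to RIBOGREEN total RNA, gave percent inhibition relative to untreated controls. Hep3B cells at 20,000 per well received 10,000 nM oligonucleotide by electroporation, with ~24 h treatment.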

[3] = 740 nM, Study 2, relative to untreated control cells
[4] = Hep3B cells, 10,000 nM antisense oligonucleotide, electroporation, RT-PCR primer probe set RTS5062, relative to untreated control cells
[5] = Hep3B cells, electroporation with 10,000 nM antisense oligonucleotide, primer probe set RTS5062, relative to untreated control cells

Substance | % inhibition of SMAD7 mRNA expression [1, 3] [%] | % inhibition of SMAD7 mRNA expression ([1]; 2220 nM, Study 2) [%] | % inhibition of SMAD7 mRNA expression ([1]; 6670.0 nM, Study 2) [%] | % inhibition of SMAD7 mRNA expression ([1]; 20000.0 nM, Study 2) [%] | IC50 [1] [µM] | % Inhibition [2, 4] [%] | % Inhibition [2, 5] [%] | % inhibition of SMAD7 mRNA expression [2, 5] [%] | % Inhibition ([2]; SMAD7 mRNA, Hep3B cells, 10,000 nM antisense oligonucleotide, electroporation, primer probe set RTS5062, relative to untreated control cells) [%]
798824 (kG*kA*k[5mC]*dA*d[5mC]*dA*dG*dT*dA*dG*dA*dG*d[5mC]*k[5mC]*kT*k[5mC]; antisense) [compound 798824] | 0 | 0 | 7 | 42 | 4 | 74 | – | – | –
798931 (antisense kG*kA*kG*dG*dA*dA*dA*dA*dT*dA*dT*dT*dA*kG*k[5mC]*kA) [compound 798931] | 0 | 43 | 72 | 83 | 7 | 69 | – | – | –
798954 (antisense kA*kT*kA*dA*dG*d[5mC]*dT*dA*dT*dT*dT*d[5mC]*dT*k[5mC]*kA*kA) [compound 798954] | 4 | 27 | 49 | 70 | > 20 | – | 54 | – | –
798987 (antisense kA*kA*kT*dG*dA*dT*dG*dA*d[5mC]*d[5mC]*dG*d[5mC]*d[5mC]*k[5mC]*k[5mC]*k[5mC]) [compound 798987] | 0 | 0 | 8 | 47 | 4 | – | – | 84 | –
799067 (antisense kG*kG*kA*dT*dG*dA*dA*dA*dA*dT*dA*dA*dT*kT*kG*kG) [compound 799067] | 5 | 55 | 63 | 78 | 9 | – | – | 74 | –
799070 (antisense kA*kG*kG*dG*dA*dA*dT*dA*dA*dG*dA*d[5mC]*dA*kA*kG*kG) [compound 799070] | 0 | 44 | 42 | 60 | 4 | – | – | 67 | –
799089 (antisense kA*kG*k[5mC]*dA*dA*dT*dA*d[5mC]*dT*dG*dT*dG*dA*kG*kG*kG) [compound 799089] | 12 | 40 | 61 | 76 | 7 | – | – | 60 | –
799118 (antisense kA*kG*kA*dG*d[5mC]*dT*dT*dA*dA*d[5mC]*dA*d[5mC]*dA*k[5mC]*kA*kG) [compound 799118] | 0 | 16 | 50 | 75 | < 0.7 | – | 71 | – | –
799143 (antisense kT*kG*kG*dG*dT*dT*dA*dT*dG*dA*d[5mC]*dG*dG*kA*k[5mC]*k[5mC]) [compound 799143] | 87 | 93 | 95 | 96 | 2 | – | – | 66 | 61
